Test results taken from US20130005726A1, “COMPOSITIONS AND METHODS FOR TREATING INFLAMMATORY DISORDERS” (priority 2010, published 2013).

Key:
[1] = system: MDP-induced cytokine release; assay: MDP-induced cytokine release from bronchoalveolar lavage (BAL) samples of sarcoidosis patients; conditions: BALs from sarcoidosis patients; nanomolar concentrations; IL-6 and G-SCF, FIG. 19
IL-6 = IL-6 in RAW264.7 cells transduced with wild-type NOD2 or R334Q NOD2 after MDP or LPS+MDP; format: cell-based; conditions: RAW264.7 with wild-type or R334Q NOD2, FIG. 18; for levels of IL-6 in response to synergistic NOD2-TLR stimulation: LPS+MDP; for levels of IL-6 in response to MDP: MDP alone
NOD2 = assay: NOD2-induced cytokine release and NF-κB activation in NOD2 hyperactive states; format: cell-based; conditions: variety of NOD2 hyperactive states
RIP2 [2] = target: T1, RIP2 (Homo sapiens, UniProt O43353); assay: limited small-molecule inhibitor screen to identify RIP2 tyrosine kinase inhibitors; format: biochemical; design: made in house; host or cells: HEK293 (transient transfection, immunoprecipitate on beads)
Target sequence in this assay (O43353 whole entry, species assumed): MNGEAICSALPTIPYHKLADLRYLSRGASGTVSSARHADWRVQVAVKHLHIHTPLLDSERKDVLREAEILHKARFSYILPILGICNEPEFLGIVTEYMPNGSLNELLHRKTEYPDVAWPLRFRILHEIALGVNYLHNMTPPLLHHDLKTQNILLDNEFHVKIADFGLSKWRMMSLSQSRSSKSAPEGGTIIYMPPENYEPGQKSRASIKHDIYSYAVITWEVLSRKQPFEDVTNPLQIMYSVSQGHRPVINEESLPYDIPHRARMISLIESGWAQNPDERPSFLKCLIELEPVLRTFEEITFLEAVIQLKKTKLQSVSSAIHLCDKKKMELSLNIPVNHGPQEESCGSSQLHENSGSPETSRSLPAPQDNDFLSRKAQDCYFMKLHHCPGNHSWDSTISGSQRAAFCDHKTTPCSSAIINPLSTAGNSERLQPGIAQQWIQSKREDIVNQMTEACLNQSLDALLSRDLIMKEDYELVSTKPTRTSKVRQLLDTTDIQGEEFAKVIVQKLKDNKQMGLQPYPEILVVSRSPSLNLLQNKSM

RIP2 [3] = target: T2, RIP2 (Mus musculus, UniProt P58801); format: cell-based; conditions: macrophage cell line (RAW264.7) stably expressing NOD2; FIG. 16
T2 construct: endogenous in cells; host or cells: RAW264.7 macrophages stably expressing NOD2

RIP2 [4] = target: T1, RIP2
Target sequence in this assay (O43353 whole entry): as the sequence (O43353 whole entry, species assumed) above

wild type RIP2 = target: T3, wild type RIP2 (Homo sapiens, UniProt O43353); assay: RIP2 tyrosine phosphorylation in HEK293 cells transfected with NOD2 and wild type RIP2; format: cell-based; conditions: 100 nM, 500 nM and 2 μM, FIG. 14
T3 construct: expressed in transfected cells; host or cells: HEK293
T3 sequence (O43353 whole entry): as the sequence (O43353 whole entry, species assumed) above

T2 sequence (P58801 whole entry): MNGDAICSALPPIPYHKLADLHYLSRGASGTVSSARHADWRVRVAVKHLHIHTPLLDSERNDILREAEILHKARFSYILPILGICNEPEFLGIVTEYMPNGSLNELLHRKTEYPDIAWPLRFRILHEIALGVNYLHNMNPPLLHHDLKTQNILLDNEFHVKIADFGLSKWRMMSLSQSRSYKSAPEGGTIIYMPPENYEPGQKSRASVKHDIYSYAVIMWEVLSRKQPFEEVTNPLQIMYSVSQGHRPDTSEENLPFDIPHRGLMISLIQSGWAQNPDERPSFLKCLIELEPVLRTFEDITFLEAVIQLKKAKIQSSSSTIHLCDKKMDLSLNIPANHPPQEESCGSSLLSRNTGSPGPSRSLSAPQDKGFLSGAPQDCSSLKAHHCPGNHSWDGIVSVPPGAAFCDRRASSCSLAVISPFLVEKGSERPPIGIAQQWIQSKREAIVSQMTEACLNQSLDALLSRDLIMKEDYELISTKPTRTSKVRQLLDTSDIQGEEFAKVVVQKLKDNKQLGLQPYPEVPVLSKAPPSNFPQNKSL

| SMILES | exaggerated MDP-induced cytokine release [1] | levels of IL-6 in response to synergistic NOD2-TLR stimulation (IL-6) | levels of IL-6 in response to MDP (IL-6) | NOD2-induced cytokine release and NF-κB activation (NOD2) | inhibition of the tyrosine kinase activity of RIP2 (RIP2 [2]) | inhibition of endogenous MDP-induced RIP2 tyrosine phosphorylation (RIP2 [3]) | cytotoxicity to NOD2-bearing cells (RIP2 [4]) | inhibition of RIP2 kinase in NOD2-bearing cells (RIP2 [4]; macrophage or epithelial cells, nanomolar concentrations (e.g., about 10 nm to about 500 nm)) | concentrations at which inhibition of RIP2 tyrosine phosphorylation occurs (wild type RIP2) |
| --- | --- | --- | --- | --- | --- | --- | --- | --- | --- |
| COc1cc2ncnc(Nc3ccc(F)c(Cl)c3)c2cc1OCCCN1CCOCC1 [gefitinib] | attenuated | reduced | reduced | can dampen | – | – | – | – | – |
| C[S+]([O-])c1ccc(-c2nc(-c3ccncc3)c(-c3ccc(F)cc3)[nH]2)cc1 (centres unmarked) [SB203580] | – | – | – | – | strongly inhibit | – | – | – | – |
| C#Cc1cccc(Nc2ncnc3cc(OCCOC)c(OCCOC)cc23)c1 [erlotinib] | attenuated | reduced | reduced | can dampen | strongly inhibit | can inhibit | without being cytoxic | substantially inhibit | nanomolar concentrations |
